Measured values from ChEMBL document CHEMBL3638862, “Radiolabeled PDE10 inhibitors” (2014).

Target: cAMP and cAMP-inhibited cGMP 3',5'-cyclic phosphodiesterase 10A (Homo sapiens, UniProt Q9Y233)
Experiment: Florescence Polarization Assay: The activity of the compounds in accordance with the present invention as PDE10 inhibitors may be readily determined without undue experimentation using a fluorescence polarization (FP) methodology well known in the art (Huang, W., et al., J. Biomol Screen, 2002, 7: 215). […] PDE10A2 was amplified from human fetal brain cDNA (Clontech, Mountain View, Calif.) using a forward primer corresponding to nucleotides 56-77 of human PDE10A2 (Accession No. AF127480, Genbank Identifier 4894716), containing a Kozak consensus sequence.

Chain of cAMP and cAMP-inhibited cGMP 3',5'-cyclic phosphodiesterase 10A (Q9Y233 whole entry): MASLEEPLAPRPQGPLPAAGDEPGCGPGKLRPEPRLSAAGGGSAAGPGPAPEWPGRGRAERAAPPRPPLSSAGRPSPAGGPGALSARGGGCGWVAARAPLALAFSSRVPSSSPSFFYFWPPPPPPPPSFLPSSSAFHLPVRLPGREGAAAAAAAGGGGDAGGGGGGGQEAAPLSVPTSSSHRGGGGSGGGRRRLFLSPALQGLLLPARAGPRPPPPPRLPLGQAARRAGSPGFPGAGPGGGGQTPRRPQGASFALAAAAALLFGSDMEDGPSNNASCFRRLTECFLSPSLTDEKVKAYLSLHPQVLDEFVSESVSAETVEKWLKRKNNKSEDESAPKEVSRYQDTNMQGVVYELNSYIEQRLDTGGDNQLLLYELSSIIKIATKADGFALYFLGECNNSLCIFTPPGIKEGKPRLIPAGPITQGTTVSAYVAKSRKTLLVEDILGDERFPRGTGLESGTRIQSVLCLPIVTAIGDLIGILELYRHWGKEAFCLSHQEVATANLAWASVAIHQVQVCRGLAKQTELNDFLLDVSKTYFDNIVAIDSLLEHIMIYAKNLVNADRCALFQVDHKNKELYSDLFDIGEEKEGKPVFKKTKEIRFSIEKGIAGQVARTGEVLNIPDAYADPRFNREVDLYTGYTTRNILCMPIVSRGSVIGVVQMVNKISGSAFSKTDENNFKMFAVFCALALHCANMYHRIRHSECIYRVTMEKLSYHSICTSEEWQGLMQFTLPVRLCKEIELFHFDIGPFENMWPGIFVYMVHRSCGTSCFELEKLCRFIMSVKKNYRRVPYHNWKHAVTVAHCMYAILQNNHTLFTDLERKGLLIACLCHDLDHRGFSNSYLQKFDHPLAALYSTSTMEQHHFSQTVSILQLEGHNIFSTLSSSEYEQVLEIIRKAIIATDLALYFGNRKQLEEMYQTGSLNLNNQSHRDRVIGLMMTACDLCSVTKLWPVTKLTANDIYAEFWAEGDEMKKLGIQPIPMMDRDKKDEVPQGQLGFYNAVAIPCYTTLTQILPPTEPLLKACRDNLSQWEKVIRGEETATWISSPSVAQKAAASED

**Q.** With `COc1ccc(-n2c(CCN3C(=O)c4cccc(OCC(F)(F)F)c4C3=O)nc3ccccc3c2=O)cc1` as the compound, how does the Ki read?
**A.** Its Ki is 0.79 nM.
